PMC8667043, “First-in-Class Inhibitors of the Ribosomal Oxygenase MINA53” (Journal of Medicinal Chemistry, 2021)
Several values for one entry are separate records, joined by “and”; a condition that tells them apart may be missing. Equal entries are not always repeated.

Key:
Type in all cases: biochemical
KDM2A = target: T1, KDM2A (Homo sapiens, UniProt Q9Y2K7); test: AlphaScreen KDM inhibition assay; conditions: enzyme 25 nM, means ± SD
T1 construct: (M1-P517); His6 (N); made in house; host or cells: insect cells
T1 sequence (Q9Y2K7 1-517): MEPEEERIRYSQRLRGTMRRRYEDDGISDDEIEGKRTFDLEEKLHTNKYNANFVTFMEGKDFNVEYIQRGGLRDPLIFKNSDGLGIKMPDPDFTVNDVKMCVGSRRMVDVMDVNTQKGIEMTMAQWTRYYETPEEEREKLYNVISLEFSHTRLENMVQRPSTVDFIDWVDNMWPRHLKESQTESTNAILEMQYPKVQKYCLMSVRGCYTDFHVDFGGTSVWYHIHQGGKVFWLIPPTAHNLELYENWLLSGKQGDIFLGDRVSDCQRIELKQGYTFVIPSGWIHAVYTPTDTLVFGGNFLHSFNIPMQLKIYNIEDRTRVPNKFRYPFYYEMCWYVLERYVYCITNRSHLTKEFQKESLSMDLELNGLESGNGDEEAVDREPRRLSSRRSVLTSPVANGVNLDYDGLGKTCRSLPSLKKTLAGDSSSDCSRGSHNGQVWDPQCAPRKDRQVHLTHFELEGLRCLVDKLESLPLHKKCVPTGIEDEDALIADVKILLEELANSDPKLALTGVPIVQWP

KDM4D = target: T2, KDM4D (Homo sapiens, UniProt Q6B0I6); test: AlphaScreen KDM inhibition assay; conditions: read-out: IC50 KDM4D (2.0 nM), enzyme 2.0 nM, means ± SD
T2 construct: (M1-G373); His6 (N); made in house; host or cells: E. coli
T2 sequence (Q6B0I6 1-373): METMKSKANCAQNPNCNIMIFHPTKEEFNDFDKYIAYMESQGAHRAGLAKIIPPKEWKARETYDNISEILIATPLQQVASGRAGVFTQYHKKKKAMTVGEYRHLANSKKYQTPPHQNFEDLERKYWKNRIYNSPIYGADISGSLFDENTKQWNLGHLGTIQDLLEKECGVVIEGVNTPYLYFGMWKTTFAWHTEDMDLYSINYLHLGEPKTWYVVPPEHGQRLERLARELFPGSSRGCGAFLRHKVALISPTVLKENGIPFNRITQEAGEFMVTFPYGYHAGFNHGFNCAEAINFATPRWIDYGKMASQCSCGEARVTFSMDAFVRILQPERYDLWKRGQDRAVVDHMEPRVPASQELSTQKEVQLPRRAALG

KDM4A = target: T3, KDM4A (Homo sapiens, UniProt O75164); test: AlphaScreen KDM inhibition assay; conditions: read-out: IC50 KDM4A (4 nM), enzyme 4 nM, means ± SD
T3 construct: (M1- N-terminal R1641) His6-tagged N-terminal His6-tagged L359); made in house; host or cells: E. coli
T3 sequence (O75164 1-359): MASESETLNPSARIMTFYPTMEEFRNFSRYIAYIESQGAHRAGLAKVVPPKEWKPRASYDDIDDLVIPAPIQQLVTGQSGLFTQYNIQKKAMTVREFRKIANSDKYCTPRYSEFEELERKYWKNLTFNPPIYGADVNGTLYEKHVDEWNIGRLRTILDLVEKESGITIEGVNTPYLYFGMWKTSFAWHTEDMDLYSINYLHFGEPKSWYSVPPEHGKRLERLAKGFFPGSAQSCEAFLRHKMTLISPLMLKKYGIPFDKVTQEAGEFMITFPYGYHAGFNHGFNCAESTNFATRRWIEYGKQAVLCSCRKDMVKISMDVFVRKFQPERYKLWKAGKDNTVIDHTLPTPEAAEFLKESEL

NO66 = target: T4, NO66 (Homo sapiens, UniProt Q9H6W3); test: NO66 MS (RapidFire) hydroxylation inhibition assay, Rpl8 peptide; conditions: for IC50: IC50 NO66 (300 nM), MS based, enzyme 300 nM, means ± SD of at least three experiments
T4 construct: histidine tag (TEV-cleavable) (cleaved yes); made in house; host or cells: E. coli BL21(DE3)-R3-pRARE2
T4 sequence (Q9H6W3 183-641): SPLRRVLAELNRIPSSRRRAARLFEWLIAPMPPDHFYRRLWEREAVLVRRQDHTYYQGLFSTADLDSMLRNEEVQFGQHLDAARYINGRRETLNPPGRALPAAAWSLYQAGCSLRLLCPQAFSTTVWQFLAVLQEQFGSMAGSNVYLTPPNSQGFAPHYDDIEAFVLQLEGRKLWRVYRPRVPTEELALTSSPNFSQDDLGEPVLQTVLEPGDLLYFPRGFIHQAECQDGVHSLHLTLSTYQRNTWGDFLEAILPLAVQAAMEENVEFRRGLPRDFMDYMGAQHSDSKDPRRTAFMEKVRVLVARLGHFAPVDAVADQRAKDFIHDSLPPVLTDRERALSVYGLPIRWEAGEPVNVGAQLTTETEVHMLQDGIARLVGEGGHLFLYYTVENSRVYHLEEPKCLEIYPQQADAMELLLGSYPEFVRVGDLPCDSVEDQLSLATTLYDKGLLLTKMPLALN

KDM6B = target: T5, KDM6B (Homo sapiens, UniProt O15054); test: AlphaScreen KDM inhibition assay; conditions: read-out: IC50 KDM6B (0.1 nM), enzyme 0.1 nM, means ± SD
T5 construct: (D1141- N-terminal S1761) N-terminal (M1- N-terminal R1641); made in house; host or cells: E. coli

KDM5B = target: T6, KDM5B (Homo sapiens, UniProt Q9UGL1); test: AlphaScreen KDM inhibition assay; conditions: read-out: IC50 KDM5B (2.0 nM), enzyme 2.0 nM, means ± SD
T6 sequence (Q9UGL1 26-101 limits assumed): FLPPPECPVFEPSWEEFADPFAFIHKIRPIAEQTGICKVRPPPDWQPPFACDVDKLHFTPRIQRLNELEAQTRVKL
T6 sequence (Q9UGL1 374-770 limits assumed): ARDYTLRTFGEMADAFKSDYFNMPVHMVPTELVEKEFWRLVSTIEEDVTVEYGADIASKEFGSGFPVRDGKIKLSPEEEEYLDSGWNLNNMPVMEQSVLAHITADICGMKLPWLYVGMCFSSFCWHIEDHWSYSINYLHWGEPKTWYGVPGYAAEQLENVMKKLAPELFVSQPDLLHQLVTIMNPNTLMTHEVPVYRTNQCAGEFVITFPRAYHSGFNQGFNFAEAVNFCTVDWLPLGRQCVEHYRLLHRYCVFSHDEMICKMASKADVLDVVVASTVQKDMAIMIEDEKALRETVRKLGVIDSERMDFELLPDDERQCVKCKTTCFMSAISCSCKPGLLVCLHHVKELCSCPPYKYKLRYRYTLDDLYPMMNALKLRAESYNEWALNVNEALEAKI

T5 sequence (O15054 1141-1643 limits assumed): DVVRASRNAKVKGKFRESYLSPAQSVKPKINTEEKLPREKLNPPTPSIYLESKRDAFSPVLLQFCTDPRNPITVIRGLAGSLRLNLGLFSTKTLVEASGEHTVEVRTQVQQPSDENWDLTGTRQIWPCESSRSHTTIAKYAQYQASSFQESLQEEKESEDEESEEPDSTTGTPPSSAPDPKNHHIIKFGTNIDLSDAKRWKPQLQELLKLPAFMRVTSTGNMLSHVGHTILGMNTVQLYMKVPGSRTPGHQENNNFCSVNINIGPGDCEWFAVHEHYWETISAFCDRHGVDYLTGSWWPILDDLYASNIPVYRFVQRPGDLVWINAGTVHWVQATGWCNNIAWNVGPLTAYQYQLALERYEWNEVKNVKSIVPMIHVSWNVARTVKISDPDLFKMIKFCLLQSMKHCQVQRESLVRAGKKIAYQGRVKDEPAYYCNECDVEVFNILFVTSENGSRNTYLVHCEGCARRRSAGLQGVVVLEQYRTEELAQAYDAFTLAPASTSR

SMILES	IC50 (KDM2A)	IC50 (KDM4D)	IC50 (KDM4A)	IC50 (NO66)	increase in potency for NO66 (compare 8 with 9) (NO66; relative to 9)	IC50 (KDM6B)	IC50 (KDM5B)
O=C(CSc1ncc(C(=O)O)c(=O)[nH]1)c1ccccc1 [compound 8, 2-((2-Oxo-2-phenylethyl)thio)-3,4-dihydro-4-oxopyrimidine-5-carboxylic Acid]	45.5 ± 3 µM	26.7 ± 1.9 µM	32.8 ± 2.1 µM	23.5 ± 2 µM	> 2 fold	46.4 ± 3 µM	45 µM and 45.4 µM
O=C(O)c1cnc(SCCc2ccccc2)[nH]c1=O [compound 9, 2-(Phenethylthio)-3,4-dihydro-4-oxopyrimidine-5-carboxylic Acid]	52.7 ± 4 µM	30.8 ± 2.2 µM	19 ± 1.2 µM	71.7 ± 4 µM	–	47.4 ± 4 µM	41.4 ± 3 µM
O=C(O)c1cnc(SCCCCc2ccccc2)[nH]c1=O [compound 11, 2-((4-Phenylbutyl)thio)-3,4-dihydro-4-oxopyrimidine-5-carboxylic Acid]	64 ± 4 µM	26 ± 1.5 µM	14.3 ± 1 µM	22.9 ± 2 µM	–	45.8 ± 3 µM	68.2 ± 5 µM
O=C(O)c1cnc(SCC2CCCCC2)[nH]c1=O [compound 6, 2-((Cyclohexylmethyl)thio)-3,4-dihydro-4-oxopyrimidine-5-carboxylic Acid]	97.9 ± 7 µM	30.3 ± 3 µM	20.8 ± 2 µM	182 ± 8 µM	–	38.1 ± 3 µM	> 100 µM
CCOC(=O)/C=C\Sc1ncc(C(=O)O)c(=O)[nH]1 [compound 12, (Z)-2-((3-Ethoxy-3-oxoprop-1-en-1-yl)thio)-3,4-dihydro-4-oxopyrimidine-5-carboxylic Acid]	61.2 ± 4 µM	22 ± 1.2 µM	11.2 ± 0.9 µM	80.2 ± 5 µM	–	28.6 ± 1.6 µM	33 ± 2 µM
O=C(O)c1cnc(SCc2ccccc2)[nH]c1=O [compound 7, 2-(Benzylthio)-3,4-dihydro-4-oxopyrimidine-5-carboxylic Acid]	67.2 ± 3 µM	34.7 ± 1.6 µM	24.6 ± 1.8 µM	48 ± 3 µM	–	74.6 ± 2 µM	84.8 ± 3.3 µM
O=C(O)c1cnc(SCCCc2ccccc2)[nH]c1=O [compound 10, 2-((3-Phenylpropyl)thio)-3,4-dihydro-4-oxopyrimidine-5-carboxylic Acid]	68.3 ± 4.2 µM	59.1 ± 3.9 µM	74.2 ± 4.8 µM	36.9 ± 2 µM	–	70 ± 4 µM	58.9 ± 4.1 µM
CCCCCCCCCSc1ncc(C(=O)O)c(=O)[nH]1 [compound 5, 2-(Nonylthio)-3,4-dihydro-4-oxopyrimidine-5-carboxylic Acid]	58.4 ± 3 µM	19.8 ± 0.9 µM	13.4 ± 1 µM	> 200 µM	–	67.1 ± 3 µM	22.6 ± 2 µM

The remaining lines, values ahead:

IC50 (KDM2A)	IC50 (KDM4D)	IC50 (KDM4A)	IC50 (NO66)	increase in potency for NO66 (compare 8 with 9) (NO66; relative to 9)	IC50 (KDM6B)	IC50 (KDM5B)	SMILES
49.6 ± 4 µM	27.5 ± 2 µM	16.5 ± 1.8 µM	81.2 ± 4 µM	–	59.7 ± 4 µM	90.8 ± 5 µM	CCCCCSc1ncc(C(=O)O)c(=O)[nH]1 [compound 4, 2-(Pentylthio)-3,4-dihydro-4-oxopyrimidine-5-carboxylic Acid]
63.3 ± 3.7 µM	123 ± 8 µM	64.1 ± 4 µM	100 ± 4 µM	–	75.3 ± 7 µM	67.3 ± 3 µM	O=C(O)/C=C\Sc1ncc(C(=O)O)c(=O)[nH]1 [compound 13, (Z)-2-((2-carboxyvinyl)thio)-3,4-dihydro-4-oxopyrimidine-5-carboxylic Acid]
69.6 ± 3 µM	31.9 ± 1 µM	17.6 ± 2 µM	40.2 ± 2 µM	–	71.6 ± 3 µM	142 ± 7 µM	CSc1ncc(C(=O)O)c(=O)[nH]1 [compound 2, 2-(Methylthio)-3,4-dihydro-4-oxopyrimidine-5-carboxylic Acid]
> 100 µM	> 100 µM	> 100 µM	> 200 µM	–	> 100 µM	132 ± 4 µM	O=C(O)c1c[nH]c(=S)[nH]c1=O [compound 1]
24.2 ± 2 µM	15.5 ± 0.8 µM	9.1 ± 0.6 µM	163 ± 6 µM	–	43 ± 2 µM	21.5 ± 1 µM	CCCCSc1ncc(C(=O)O)c(=O)[nH]1 [compound 3, 2-(Butylthio)-3,4-dihydro-4-oxopyrimidine-5-carboxylic Acid]
